Consider six compounds from ChEMBL document CHEMBL4334498, “Structures, NMR Spectroscopic Features, and Cytotoxic Properties of Oligomeric Hellinoyl (m-GO-m-GOG)-Type Ellagitannins from the Galls of Tamarix aphylla” (J Nat Prod, 2019).

The nature of data set [1]: Cytotoxicity against human HPLF cells assessed as reduction in cell viability incubated for 48 hrs by MTT assay. In kind it is cell-based.
The subject of the next data set is HSC-4. The data set can be described thus: Cytotoxicity against human HSC4 cells assessed as reduction in cell viability incubated for 48 hrs by MTT assay. In kind it is functional. Conditions: HSC-4, 48 h.
Another data set deals with HSC-2. Kind of data set: Cytotoxicity against human HSC2 cells assessed as reduction in cell viability incubated for 48 hrs by MTT assay. Conditions: HSC-2, 48 h. In kind it is functional. On the technique in general: Tetrazolium assays rely on reduction of a dye to a coloured formazan, in cell work by metabolically active cells.
Data set [2] in a line: Cytotoxicity against human HGF cells assessed as reduction in cell viability incubated for 48 hrs by MTT assay. In kind it is cell-based.
The test system of the next data set is Ca9-22. Kind of data set: Cytotoxicity against human Ca9-22 cells assessed as reduction in cell viability incubated for 48 hrs by MTT assay. In kind it is functional. To be noted: Ca9-22, 48 h.
A short description of data set [3]: Cytotoxicity against human Pulp Cell cells assessed as reduction in cell viability incubated for 48 hrs by MTT assay. In kind it is cell-based.

As usually defined, the CC50 is the concentration giving 50% cytotoxicity.

Molecules are shown by their SMILES.

Turning to `O=C(O)c1cc(O)c(O)c(Oc2c(C(=O)O)cc(Oc3c(C(=O)O)cc(O)c(O)c3O)c(O)c2O)c1`, the CC50 at 48 h in data set [1], in data set [2] and in data set [3] was greater than 395 µM throughout. Further, the results for the CC50 in the data set with HSC-4, in the data set on HSC-2 and in the data set on Ca9-22 were 153 µM, 246 µM and 345 µM, respectively.

As to `O=C(O[C@@H]1O[C@@H]2COC(=O)c3cc(O)c(O)c(O)c3-c3c(cc(O)c(O)c3O)C(=O)O[C@H]2[C@H](OC(=O)c2cc(O)c(O)c(O)c2)[C@H]1OC(=O)c1cc(O)c(O)c(O)c1Oc1cc(C(=O)O[C@@H]2O[C@@H]3COC(=O)c4cc(O)c(O)c(O)c4-c4c(cc(O)c(O)c4O)C(=O)O[C@H]3[C@H](OC(=O)c3cc(O)c(O)c(O)c3)[C@H]2OC(=O)c2cc(O)c(O)c(O)c2Oc2cc3c(c(O)c2O)Oc2cc(cc(O)c2O)C(=O)O[C@@H]2O[C@@H]4COC(=O)c5cc(O)c(O)c(O)c5-c5c(cc(O)c(O)c5O)C(=O)O[C@H]4[C@H](OC(=O)c4cc(O)c(O)c(O)c4)[C@H]2OC3=O)cc(O)c1O)c1cc(O)c(O)c(Oc2c(C(=O)O[C@H]3C(O)O[C@@H]4COC(=O)c5cc(O)c(O)c(O)c5-c5c(cc(O)c(O)c5O)C(=O)O[C@H]4[C@@H]3OC(=O)c3cc(O)c(O)c(O)c3)cc(O)c(O)c2O)c1` (stereo not given in full), the CC50 at 48 h in data set [1], in data set [2] and in data set [3] was greater than 56 µM in each case. Besides, the CC50 amounted to 24 µM in the data set on HSC-4, 25 µM with HSC-2 and 35 µM in the data set on Ca9-22.

With `O=C(O[C@@H]1O[C@@H]2COC(=O)c3cc(O)c(O)c(O)c3-c3c(cc(O)c(O)c3O)C(=O)O[C@H]2[C@H](OC(=O)c2cc(O)c(O)c(O)c2)[C@H]1OC(=O)c1cc(O)c(O)c(O)c1Oc1cc2c(c(O)c1O)Oc1cc(cc(O)c1O)C(=O)O[C@@H]1O[C@@H]3COC(=O)c4cc(O)c(O)c(O)c4-c4c(cc(O)c(O)c4O)C(=O)O[C@H]3[C@H](OC(=O)c3cc(O)c(O)c(O)c3)[C@H]1OC2=O)c1cc(O)c(O)c(Oc2c(C(=O)O[C@H]3C(O)O[C@@H]4COC(=O)c5cc(O)c(O)c(O)c5-c5c(cc(O)c(O)c5O)C(=O)O[C@H]4[C@@H]3OC(=O)c3cc(O)c(O)c(O)c3)cc(O)c(O)c2O)c1` (stereo not given in full), the CC50 at 48 h in data set [1], in data set [2] and in data set [3] was greater than 75 µM in each case. Also, the results for the CC50 with HSC-4, with HSC-2 and in the data set on Ca9-22 were 26 µM, 23 µM and 27 µM, respectively.

Regarding `O=C(OC[C@H]1O[C@H]2OC(=O)c3cc(O)c(O)c(c3)Oc3c(cc(Oc4c(C(=O)O[C@H]5[C@H](OC(=O)c6cc(O)c(O)c(O)c6)O[C@@H]6COC(=O)c7cc(O)c(O)c(O)c7-c7c(cc(O)c(O)c7O)C(=O)O[C@H]6[C@@H]5OC(=O)c5cc(O)c(O)c(O)c5)cc(O)c(O)c4O)c(O)c3O)C(=O)O[C@@H]2[C@@H](OC(=O)c2cc(O)c(O)c(O)c2)[C@@H]1O)c1cc(O)c(O)c(O)c1`, the CC50 at 48 h in data set [1], in data set [2] and in data set [3] was greater than 116 µM in each case. Besides, the CC50 was 21 µM in the data set on HSC-4, 21 µM with HSC-2 and 25 µM in the data set on Ca9-22.

Turning to `COc1cccc2c1C(=O)c1c(O)c3c(c(O)c1C2=O)C[C@@](O)(C(=O)CO)C[C@@H]3O[C@H]1C[C@H](N)[C@H](O)[C@H](C)O1` [DOXORUBICIN], the CC50 at 48 h in data set [1], in data set [2] and in data set [3] was greater than 10 µM in each case. The CC50 with HSC-4 is 0.1 µM; in the data set on Ca9-22, 0.7 µM.

In the case of `O=c1[nH]cc(F)c(=O)[nH]1` [FLUOROURACIL], the half-maximal cytotoxic concentration (CC50) at 48 h in data set [1], in data set [2] and in data set [3] was greater than 1000 µM in each case. Further, the CC50 in the data set with HSC-4 was determined as 25 µM; with HSC-2, 47 µM; in the data set with Ca9-22 it was 262 µM.
